In assay [1] the test system is citrate synthase in mitochondria isolated from lean (non-diabetic) ZDF rats. Kind of assay: Residual citrate synthase activity in mitochondrial pellets (marker of inner membrane integrity). In kind it is cell-based, rat. As to the method: An enzyme assay was then used to evaluate the mitochondrial pellets to determine the contents of the matrix protein citrate synthase in order to evaluate the integrity of the mitochondria after the respective incubations. Citrate synthase activity was determined according to the methods decscribed in Newsholme and Crabtree, J. Exp. Zoo. 239(2): 159-67 (1986). In brief, frozen mitochondrial pellets were resuspended in a reaction mixture containing 50 mM Tris-HCl (pH8.0), 0.1 mM acetyl coenzyme A and 0.2 mM 5,5′-dithiobis-(2-nitrobenzoic acid) (DTNB). Reactants were incubated for five minutes prior to measurement and the assay started by the addition of 5 mM oxaloacetate. Absorbance of DTNB was then followed at 412 nm and units were calculated relative to soluble protein using the biccichonic acid method (BCA, Pierce) with bovine serum albumin as standard.

The subject of assay [2] is cytochrome c release from mitochondria isolated from lean (non-diabetic) ZDF rats. Put plainly: Cytochrome c release from isolated mitochondria, Western blot. The assay is classed as cell-based, rat. Particulars: for cytochrome c release into supernatant: 5 mM alone, 30 min incubation. (A western blot detects proteins with antibodies after separation by electrophoresis.)

The test system of assay [3] is mitochondria isolated from hearts of obese ZDF rats and lean littermates. In kind it is cell-based, rat.
Assay [4] deals with electron transport chain complexes I to V of left ventricle mitochondria. Particulars: rat, in vivo.
Protocol: Male Wistar rats (starting body weight from about 200 to about 250 g) were maintained on Teklad TB 2108 (Harlan UK) rat chow and tap water ab libitum. At eight weeks the rats were randomized into two groups: control and diabetic (STZ). Rats were made diabetic by injection with 60 mg/kg STZ and the control rats were given a corresponding amount of 0.9% sodium chloride.
The control groups received Milli-Q water ab libitum during the corresponding period. At the end of the eleven week treatment period, rats were anaesthetized with isoflurane, the abdominal cavity was opened and a catheter inserted into the vena cava. Approximately 1 mL of blood was removed for future analysis and 10000 U/Kg heparin infused. […]
Fiber respiration was then measured in a respirometer at 30° C. at high resolution using Clark-type electrodes and integrated software that was used for data acquisition and analysis (DatLab 4, Oroboros, Oxygraph; Innsbruck, Austria). […] Respiratory rates (oxygen fluxes) were expressed as pmol O2. […]
Respiratory flux rates through complex I (GM2 and GM3), complexes I and II (GMS3) and II (S3) were determined to measure the intactness of the individual complexes (GM3 and S3), and to estimate maximal flux rates through the electron transport chain.
The mark [5] stands for this setting: in the presence of 5 mM spermine.

Entries after “also recorded” stand apart in the source; their conditions may differ. Like-named read-outs stand apart in the source and are kept apart here.

With `NCCCCNCCCN` [spermidine], the “residual citrate synthase activity” value in assay [1] (5 mM alone, after 30 min) is “increased amounts of residual citrate synthase activity compared to control samples”. In addition, in assay [1] (setting [5]), the “citrate synthase activity in spermine treated mitochondria” value is given as “improved citrate synthase activity, although not as effectively; also recorded: capable of improving residual citrate synthase activity” and the “relative potency in improving residual citrate synthase activity” value is given as “markedly less potent than triethylenetetramine dihydrochloride”. Moreover, the “cytochrome c release into supernatant” value in assay [2] is given as “caused cytochrome c release at 5 mM, albeit less than in the case of spermine”. Also, the “cytochrome c release on co-incubation with 5 mM spermine” value in assay [2] (5 mM spermine plus test polyamine) was “reduced, though to a lesser degree; also recorded: diminished cytochrome c release”. The “concentration dependence of diminished cytochrome c release” value in assay [2] ([…] vs 5 mM, with 5 mM spermine) was “less potent than when 5 mM was used”. Moreover, the “change in mitochondrial volume” value in assay [3] (0-5 mM, no CaCl2, 30 minutes, diabetic or control mitochondria) was “no detectable change in mitochondrial volume”. The “effect on swelling at concentrations above 0.625 mM” value in assay [3] (150 μM CaCl2, mitochondria from obese and lean rats) is recorded as “continued to have a protective effect; also recorded: continue to protect mitochondria from swelling”.
As for `NCCCNCCCCNCCCN` [spermine], in assay [1] (5 mM alone), the “residual citrate synthase activity” value was “rapid loss of citrate synthase activity”. Besides, the “residual citrate synthase activity” value in assay [1] (lower concentrations than 5 mM) is recorded as “less severe impact on the residual citrate synthase activity”. Further, in assay [2], the “cytochrome c release into supernatant” value is listed as “release of large amounts of cytochrome c”. In assay [2] (data not shown), the “incubation time to maximum release of cytochrome c” value amounted to 30 min. In addition, in assay [3], the “change in mitochondrial volume” value is recorded as “led to swelling of mitochondria”, the “effect on swelling at concentrations above 0.625 mM” value is “induced swelling; also recorded: appears to induce swelling” and the “relative inhibition of Ca2+ induced swelling among the three polyamines” value is reported as “greatest inhibition of swelling”.
On to `NCCNCCNCCN.O=C(O)CCC(=O)O.O=C(O)CCC(=O)O` [triethylenetetramine disuccinate], for which, in assay [4], the “cytochrome C oxidase flux (TMPD plus ascorbate)” value is “significant improvement in cytochrome C oxidase” and the “respiration flux rates of control treated mitochondria” value is “No significant effect”.

The record behind these values is patent publication US20150196500A1, “Treatment of Mitochondria-Related Diseases and Improvement of Age-Related Metabolic Deficits” (PHILERA NEW ZEALAND LIMITED, priority 2005, published 2015).
